Tested on: sexual desensitization of male subjects
Test: Desensitization effect scored by male subjects after rubbing the mixture on the genital organs and manual stimulation
Type: in vivo, human
Conditions: for Mean desensitization effect: scale of 1-10, mean of 5 subjects
Procedure: In a trial which was conducted on 5 healthy, sexually active male subjects the following formulations were tested: Benzyl alcohol in concentrations: 1%, 3%, 5%, 7% and 10%. Each of the concentrations was tested in the following vehicles: aqueous alcoholic solution, gel, ointment and cream. For each formulation the participants were requested to rub the mixture on their genital organs until complete skin absorption and then wait for the full effect for 5 minutes. After the waiting period the participants were requested to perform manual stimulation of their genital organs and describe the desensitization effect of the mixture in a scale of 1-10.
In another trial, menthol was added to the mixture and the same procedure that was described earlier was applied to assess the effect of menthol addition.

OCc1ccccc1 [Benzyl alcohol]
Desensitization effect (in words) (each of the benzyl alcohol concentrations tested (1-10%)): effective as a desensitizer
Optimal concentration of benzyl alcohol (found in the applicant's tests): 5%
Mean desensitization effect (aqueous alcoholic solution (1:1 water ethanol mixture), benzyl alcohol 1%, 5 min wait): 3.2
Mean desensitization effect (aqueous alcoholic solution (1:1 water ethanol mixture), benzyl alcohol 3%): 4.6
Mean desensitization effect (aqueous alcoholic solution (1:1 water ethanol mixture), benzyl alcohol 5%): 6.2
Mean desensitization effect (aqueous alcoholic solution (1:1 water ethanol mixture), benzyl alcohol 7%): 7.6
Mean desensitization effect (aqueous alcoholic solution (1:1 water ethanol mixture), benzyl alcohol 10%): 8.0
Mean desensitization effect (aqueous gel (1% hydroxyethylcellulose gel), benzyl alcohol 1%): 2.8
Mean desensitization effect (aqueous gel (1% hydroxyethylcellulose gel), benzyl alcohol 3%): 4.2
Mean desensitization effect (aqueous gel (1% hydroxyethylcellulose gel), benzyl alcohol 5%): 5.6
Mean desensitization effect (aqueous gel (1% hydroxyethylcellulose gel), benzyl alcohol 7%): 6.6
Mean desensitization effect (aqueous gel (1% hydroxyethylcellulose gel), benzyl alcohol 10%): 7.4
Mean desensitization effect (cream, benzyl alcohol 1%): 2.4
Mean desensitization effect (cream, benzyl alcohol 3%): 3.6
Mean desensitization effect (cream, benzyl alcohol 5%): 5.2
Mean desensitization effect (cream, benzyl alcohol 7%): 6.2
Mean desensitization effect (cream, benzyl alcohol 10%): 6.8
Mean desensitization effect (ointment, benzyl alcohol 1%): 2.0
Mean desensitization effect (ointment, benzyl alcohol 3%): 3.2
Mean desensitization effect (ointment, benzyl alcohol 5%): 4.8
Mean desensitization effect (ointment, benzyl alcohol 7%): 5.8
Mean desensitization effect (ointment, benzyl alcohol 10%): 6.2

CC1CCC(C(C)C)C(O)C1 (stereo not drawn) [menthol, Menthol]
Desensitization effect (in words) (menthol combined with benzyl alcohol gel, compared with the same concentration of benzyl alcohol alone): dramatic effect
Desensitization effect (in words) (sole use of menthol in 1% Hydroxyethylcellulose gel): did not create a substantial desensitization effect

Source: patent publication US20110245349A1, “BENZYL ALCOHOL MIXTURE FOR TREATING PREMATURE EJACULATION” (PANAXIA LTD., priority 2010, published 2011)
